Drawing on patent publication US11739098B2 (BRISTOL-MYERS SQUIBB COMPANY, priority 2017, dated 2023), this text covers IC50 for 12 molecules.

Common to all, as to format: cell-based
One assay deals with T1, human TLR8 (Homo sapiens, UniProt Q9NR97).
T1 construct: host or cells: HEK-Blue cells (HEK293-derived reporter line)
T1 sequence (Q9NR97 27-1041): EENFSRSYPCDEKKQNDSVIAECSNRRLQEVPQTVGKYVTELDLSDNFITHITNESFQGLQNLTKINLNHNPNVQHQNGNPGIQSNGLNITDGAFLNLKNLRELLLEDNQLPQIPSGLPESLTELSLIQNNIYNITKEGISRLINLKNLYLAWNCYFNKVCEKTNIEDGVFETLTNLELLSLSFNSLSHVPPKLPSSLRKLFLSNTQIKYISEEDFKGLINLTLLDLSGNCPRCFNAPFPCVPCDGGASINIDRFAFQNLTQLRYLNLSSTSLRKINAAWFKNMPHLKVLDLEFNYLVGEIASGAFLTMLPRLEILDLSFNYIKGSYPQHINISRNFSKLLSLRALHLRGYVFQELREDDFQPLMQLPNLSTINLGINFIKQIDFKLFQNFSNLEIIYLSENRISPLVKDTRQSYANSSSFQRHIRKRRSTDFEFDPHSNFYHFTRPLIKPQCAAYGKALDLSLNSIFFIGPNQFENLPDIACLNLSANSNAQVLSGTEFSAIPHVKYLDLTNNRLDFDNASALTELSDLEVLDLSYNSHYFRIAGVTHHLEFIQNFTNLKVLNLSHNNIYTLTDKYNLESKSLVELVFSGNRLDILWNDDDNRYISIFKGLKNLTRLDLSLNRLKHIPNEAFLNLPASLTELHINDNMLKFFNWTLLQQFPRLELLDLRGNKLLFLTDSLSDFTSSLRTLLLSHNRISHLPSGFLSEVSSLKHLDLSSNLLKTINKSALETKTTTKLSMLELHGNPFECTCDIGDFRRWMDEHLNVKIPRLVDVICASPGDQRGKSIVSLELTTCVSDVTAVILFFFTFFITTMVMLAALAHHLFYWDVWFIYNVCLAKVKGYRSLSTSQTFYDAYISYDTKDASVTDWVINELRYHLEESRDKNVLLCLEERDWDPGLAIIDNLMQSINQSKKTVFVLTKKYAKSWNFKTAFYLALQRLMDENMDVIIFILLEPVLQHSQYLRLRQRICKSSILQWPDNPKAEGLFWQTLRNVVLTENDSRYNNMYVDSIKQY
The experiment in a line: TLR8 inhibition reporter assay (HEK-Blue cells, SEAP reporter, R848 stimulation). The conditions noted are these: HEK-Blue cells overexpressing human TLR8, SEAP reporter, R848 15.9 μM. In short, it runs like this:
(§1)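 Agonists (final): TLR7 gardiquimod 7.5 μM; TLR8 R848 15.9 μM; TLR9 ODN2006 5 nM. HEK-Blue reporter cells, 30 min RT compound pre-incubation, 0.05 nM–50 μM dose range, 22 h at 37 °C, colorimetric SEAP detection medium. % inhibition relative to agonist+DMSO and known-inhibitor wells.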
A general note: A reporter such as luciferase makes a cellular process visible.

The target in the next assay is T2, human TLR9 (Homo sapiens, UniProt Q9NR96).
T2 construct: host or cells: HEK-Blue cells (HEK293-derived reporter line)
T2 sequence (Q9NR96 26-1032): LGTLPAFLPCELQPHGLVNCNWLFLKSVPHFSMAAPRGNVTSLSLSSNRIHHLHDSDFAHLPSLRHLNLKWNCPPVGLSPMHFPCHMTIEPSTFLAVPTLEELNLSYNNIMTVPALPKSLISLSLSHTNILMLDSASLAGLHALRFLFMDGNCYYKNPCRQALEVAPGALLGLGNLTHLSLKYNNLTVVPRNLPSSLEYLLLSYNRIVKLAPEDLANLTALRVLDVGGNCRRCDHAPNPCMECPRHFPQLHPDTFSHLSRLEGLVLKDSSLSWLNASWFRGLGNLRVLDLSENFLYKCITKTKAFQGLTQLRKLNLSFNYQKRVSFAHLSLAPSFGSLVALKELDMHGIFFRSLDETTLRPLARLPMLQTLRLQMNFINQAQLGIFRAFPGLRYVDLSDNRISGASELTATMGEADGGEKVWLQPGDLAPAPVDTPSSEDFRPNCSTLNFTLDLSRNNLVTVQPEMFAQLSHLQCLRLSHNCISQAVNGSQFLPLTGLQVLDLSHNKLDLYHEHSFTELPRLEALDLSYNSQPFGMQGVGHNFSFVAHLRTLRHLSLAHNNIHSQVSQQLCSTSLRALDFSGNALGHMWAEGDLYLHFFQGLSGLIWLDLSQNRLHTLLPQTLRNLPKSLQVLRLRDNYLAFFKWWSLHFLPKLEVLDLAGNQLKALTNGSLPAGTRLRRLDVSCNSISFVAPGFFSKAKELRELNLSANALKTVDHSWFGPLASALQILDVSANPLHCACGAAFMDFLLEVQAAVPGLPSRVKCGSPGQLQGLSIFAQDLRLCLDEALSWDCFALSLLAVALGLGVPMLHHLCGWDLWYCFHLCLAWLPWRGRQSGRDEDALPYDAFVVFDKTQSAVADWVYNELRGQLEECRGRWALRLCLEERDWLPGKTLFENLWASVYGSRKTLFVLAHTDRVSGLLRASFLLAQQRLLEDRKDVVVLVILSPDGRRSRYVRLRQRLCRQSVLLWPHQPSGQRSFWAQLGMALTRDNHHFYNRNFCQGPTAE
The experiment in a line: TLR9 inhibition reporter assay (HEK-Blue cells, SEAP reporter, ODN2006 stimulation). The conditions noted are these: HEK-Blue cells overexpressing human TLR9, SEAP reporter, ODN2006 5 nM. In short, it runs like this: as §1

A further assay deals with T3, human TLR7 (Homo sapiens, UniProt Q9NYK1).
T3 construct: host or cells: HEK-Blue cells (HEK293-derived reporter line)
T3 sequence (Q9NYK1 27-1049): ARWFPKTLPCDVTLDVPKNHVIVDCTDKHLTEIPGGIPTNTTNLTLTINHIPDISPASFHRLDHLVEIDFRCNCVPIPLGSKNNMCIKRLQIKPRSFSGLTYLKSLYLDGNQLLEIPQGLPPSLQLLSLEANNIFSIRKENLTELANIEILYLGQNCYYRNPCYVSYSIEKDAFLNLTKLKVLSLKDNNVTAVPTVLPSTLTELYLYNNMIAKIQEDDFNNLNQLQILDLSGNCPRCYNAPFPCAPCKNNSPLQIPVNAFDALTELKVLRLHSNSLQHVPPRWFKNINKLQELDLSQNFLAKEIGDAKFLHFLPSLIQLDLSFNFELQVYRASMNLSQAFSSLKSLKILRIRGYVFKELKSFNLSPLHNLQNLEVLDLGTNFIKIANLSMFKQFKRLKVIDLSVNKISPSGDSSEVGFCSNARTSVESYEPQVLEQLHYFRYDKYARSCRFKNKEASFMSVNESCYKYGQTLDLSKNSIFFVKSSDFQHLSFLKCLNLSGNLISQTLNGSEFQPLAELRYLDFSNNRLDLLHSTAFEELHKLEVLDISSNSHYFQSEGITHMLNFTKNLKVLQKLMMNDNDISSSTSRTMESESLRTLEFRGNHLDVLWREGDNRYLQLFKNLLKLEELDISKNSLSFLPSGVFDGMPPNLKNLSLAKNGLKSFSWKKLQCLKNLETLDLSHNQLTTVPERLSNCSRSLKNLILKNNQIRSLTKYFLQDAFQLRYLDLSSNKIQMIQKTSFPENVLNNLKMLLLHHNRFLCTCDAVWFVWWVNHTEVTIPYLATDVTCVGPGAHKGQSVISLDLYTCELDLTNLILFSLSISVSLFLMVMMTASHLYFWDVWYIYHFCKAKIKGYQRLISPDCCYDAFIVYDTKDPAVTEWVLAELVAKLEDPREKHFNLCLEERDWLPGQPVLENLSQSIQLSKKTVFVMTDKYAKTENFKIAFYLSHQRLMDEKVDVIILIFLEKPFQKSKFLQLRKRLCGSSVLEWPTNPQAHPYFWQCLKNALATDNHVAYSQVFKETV
The experiment in a line: TLR7 inhibition reporter assay (HEK-Blue cells, SEAP reporter, gardiquimod stimulation). To be noted: HEK-Blue cells overexpressing human TLR7, SEAP reporter, gardiquimod 7.5 μM. In short, it runs like this:
as §1

Molecules are shown by their SMILES.

For orientation: IC50 means the concentration that inhibits the measured activity by half. Higher therefore signals weaker potency.

With `Cc1cc2nnnn2cc1-c1[nH]c2ccc(C3CCN(Cc4ccn(C)n4)CC3)cc2c1C(C)C` [Example 887, 6-(3-isopropyl-5-(1-((1-methyl-1H-pyrazol-3-yl)methyl)piperidin-4-yl)-1H-indol-2-yl)-7-methyltetrazolo[1,5-a]pyridine], the IC50 was below 100 nM against human TLR8, 1000 to 50000 nM on human TLR9 and below 100 nM at human TLR7.
`CC(C)c1c(-c2ccc(C#N)c3ncccc23)[nH]c2ccc(C3CCN(CC(C)(C)O)CC3)cc12` [Example 766, 5-(5-(1-(2-hydroxy-2-methylpropyl)piperidin-4-yl)-3-isopropyl-1H-indol-2-yl)quinoline-8-carbonitrile]: the 50% inhibitory concentration (IC50) against human TLR8 was below 100 nM; against human TLR9, 1000 to 50000 nM; at human TLR7, below 100 nM.
As for `Cc1nc2cc(-c3[nH]c4ccc(C5CCN(C(=O)[C@@H]6C[C@@H](O)CN6)CC5)cc4c3C(C)C)ccn2n1` [Example 540, ((2S,4R)-4-hydroxypyrrolidin-2-yl)(4-(3-isopropyl-2-(2-methyl-[1,2,4]triazolo[1,5-a]pyridin-7-yl)-1H-indol-5-yl)piperidin-1-yl) methanone], the values for the half-maximal inhibitory concentration (IC50) against human TLR8, at human TLR9 and on human TLR7 were 1000 to 50000 nM, 1000 to 50000 nM and below 100 nM, respectively.
Turning to `Cc1cn2cc(-c3[nH]c4ccc(C5CCN(CC(=O)N(C)C)CC5)cc4c3C(C)C)cc(C(F)(F)F)c2n1` [Example 376, 2-(4-(3-isopropyl-2-(2-methyl-8-(trifluoromethyl)imidazo[1,2-a]pyridin-6-yl)-1H-indol-5-yl)piperidin-1-yl)-N,N-dimethylacetamide], the IC50 is 100 to 1000 nM against human TLR8, 100 to 1000 nM against human TLR9 and below 100 nM at human TLR7.
Turning to `CC(C)c1c(-c2ccnc3[nH]ncc23)[nH]c2ccc(C3CCN(C(=O)CN4CCNC(=O)C4)CC3)cc12` [Example 587, 4-(2-(4-(3-isopropyl-2-(1H-pyrazolo[3,4-b]pyridin-4-yl)-1H-indol-5-yl)piperidin-1-yl)-2-oxoethyl) piperazin-2-one], the IC50 was 100 to 1000 nM against human TLR8, above 50000 nM against human TLR9 and 100 to 1000 nM on human TLR7.
Take `CCc1c(-c2ccnc3[nH]ncc23)[nH]c2ccc(C3CCN(C(=O)C4CCN(C)CC4)CC3)cc12` [Example 648, (4-(3-ethyl-2-(1H-pyrazolo[3,4-b]pyridin-4-yl)-1H-indol-5-yl)piperidin-1-yl)(1-methylpiperidin-4-yl)methanone]: the 50% inhibitory concentration (IC50) against human TLR8 was below 100 nM; at human TLR9, 1000 to 50000 nM; on human TLR7 it was below 100 nM.
Regarding `Cc1cc2nnnn2cc1-c1[nH]c2ccc(C3CCN(Cc4ncn(C)n4)CC3)cc2c1C(C)C` [Example 886, 6-(3-isopropyl-5-(1-((1-methyl-1H-1,2,4-triazol-3-yl)methyl)piperidin-4-yl)-1H-indol-2-yl)-7-methyltetrazolo[1,5-a]pyridine], the results for the concentration for half-maximal inhibition (IC50) against human TLR8, against human TLR9 and against human TLR7 were below 100 nM, 1000 to 50000 nM and below 100 nM, respectively.
For `CC(C)c1c(-c2cc(C(F)(F)F)c3nccn3c2)[nH]c2ccc(C3CCN(Cc4cnn(C)c4)CC3)cc12` [Example 933, 6-(3-isopropyl-5-(1-((1-methyl-1H-pyrazol-4-yl)methyl)piperidin-4-yl)-1H-indol-2-yl)-8-(trifluoromethyl)imidazo[1,2-a]pyridine], the IC50 against human TLR8 was below 100 nM; on human TLR9 it was 100 to 1000 nM; at human TLR7, below 100 nM.
Turning to `COc1cc(-c2[nH]c3ccc(C4CCN(C(=O)CN(C)C)CC4)cc3c2C(C)C)nn2ncnc12` [Example 460, 2-(dimethylamino)-1-(4-(3-isopropyl-2-(8-methoxy-[1,2,4]triazolo[1,5-b]pyridazin-6-yl)-1H-indol-5-yl)piperidin-1-yl)ethan-1-one], the IC50 at human TLR8 is below 100 nM; against human TLR9, 1000 to 50000 nM; at human TLR7, below 100 nM.
Turning to `CNC(=O)c1cn2cc(-c3[nH]c4ccc(C5CCN(CC(=O)N(C)C)CC5)cc4c3C(C)C)cc(C)c2n1` [Example 346, 6-(5-(1-(2-(dimethylamino)-2-oxoethyl)piperidin-4-yl)-3-isopropyl-1H-indol-2-yl)-N,8-dimethylimidazo[1,2-a]pyridine-2-carboxamide], the IC50 against human TLR8 was below 100 nM; on human TLR9, 1000 to 50000 nM; against human TLR7, below 100 nM.
`CC(C)c1c(-c2cc(C(C)(C)O)c3nccn3c2)[nH]c2ccc(C3CCN(C(=O)CN(C)C)CC3)cc12` [Example 493, 2-(dimethylamino)-1-(4-(2-(8-(2-hydroxypropan-2-yl)imidazo[1,2-a]pyridin-6-yl)-3-isopropyl-1H-indol-5-yl)piperidin-1-yl) ethan-1-one]: the IC50 at human TLR8 is 1000 to 50000 nM; on human TLR9, 100 to 1000 nM; on human TLR7, below 100 nM.
Regarding `CN(C)CC(=O)N1CCC(c2ccc3[nH]c(-c4ccn5ccnc5c4)c(CC(F)F)c3c2)CC1` [Example 571, 1-(4-(3-(2,2-difluoroethyl)-2-(imidazo[1,2-a]pyridin-7-yl)-1H-indol-5-yl)piperidin-1-yl)-2-(dimethylamino)ethan-1-one], the figures for the IC50 at human TLR8, at human TLR9 and against human TLR7 were 100 to 1000 nM, below 100 nM and below 100 nM, respectively.
